According to patent US11091497B2, “Pyrano[3,4-b]pyrazine kappa opioid receptor ligands for treating addiction, pruritus, pain, and inflammation” (The Rockefeller University, priority 2017, dated 2021):
Where two headings read alike, the source gives them in different places.

Legend:
[1] = target: T1, kappa opioid receptor (PathHunter U2OS hOPRK1 membranes) (Homo sapiens, UniProt P41145); assay: Tritiated U69,593 binding for KOP-R membranes
T1 construct: host or cells: U2OS (PathHunter U2OS hOPRK1 β-arrestin cell line)
T1 sequence (P41145 whole entry): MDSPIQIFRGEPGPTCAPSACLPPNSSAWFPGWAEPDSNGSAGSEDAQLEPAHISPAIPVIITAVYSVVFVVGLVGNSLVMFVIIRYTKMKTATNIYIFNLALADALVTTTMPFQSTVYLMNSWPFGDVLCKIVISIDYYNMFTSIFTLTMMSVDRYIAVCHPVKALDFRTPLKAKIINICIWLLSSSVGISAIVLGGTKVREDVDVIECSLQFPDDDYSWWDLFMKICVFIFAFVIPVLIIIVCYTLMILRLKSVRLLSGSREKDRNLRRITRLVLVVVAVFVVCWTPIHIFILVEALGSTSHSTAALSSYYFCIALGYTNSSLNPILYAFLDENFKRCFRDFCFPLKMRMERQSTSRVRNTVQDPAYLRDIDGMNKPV
Experimental: Tritiated U69,593 binding for KOP-R membranes; tritiated DAMGO binding for MOP-R membranes; and tritiated DPDPE binding for DOP-R membranes:
(§1) Membranes from cells stably expressing kappa, mu or delta opioid receptor constructs (PathHunter U2OS hOPRK1, CHO-K1 rOPRM1 and CHO-K1 OPRD1 β-arrestin cell line, DiscoverX, Fremont, Calif., USA) were used. Cells were scraped from tissue culture plates, homogenized with a tissue tearor homogenizer in membrane buffer (10 mM Tris, 100 mM NaCl, and 1 mM EDTA; pH 7.4), and centrifuged at 20,000 g for 30 minutes at 4° C. and frozen at −80° C. until use. Prior to use, the pellets were resuspended in binding buffer (50 mm Tris, 100 mm NaCl, pH 7.4), homogenized with a dounce homogenizer and […] incubated with 1.0 nM of the appropriate tritiated ligand ([^3H]U69,593, [^3H]DAMGO or [^3H]DPDPE for kappa, mu or delta binding, respectively) and the appropriate concentration of compound for 60 minutes at 30° C. Membranes with bound tritiated ligand were collected on Whatman GF/B filter paper (Brandel, Gaithersburg, Md., USA) utilizing a Brandel harvester. Bound tritiated ligand was quantified using a TriCarb-2900TR scintillation counter (Packard, Downers Grove, Ill., USA) following addition of 4 ml ReadySafe scintillation fluid (Beckman Coulter, Indianapolis, Ind., USA). Compiled data for each compound was normalized to the maximal binding in the absence of compound, with non-specific binding subtracted. Curve fitting was done in Microcal Origin 17.0 software using logistic sigmoidal fit, to determine IC50. GTPgammaS Membranes from U2OS cells stably expressing human kappa opioid receptors were used. Cells were scraped from tissue culture plates, homogenized with a tissue tearor homogenizer in membrane buffer (10 mM Tris, 100 mM NaCl, and 1 mM EDTA; pH 7.4), and centrifuged at 20,000 g for 30 minutes at 4° C. and frozen at −80° C. until use. Prior to use, the pellets were resuspended in assay buffer (50 mm Tris, 100 mm NaCl, 5 mM MgCl2, and 1 mM EDTA; pH 7.4) and homogenized with a dounce homogenizer and 50 μg incubated with 0.1 nM [35 S]GTPγS, 10 nM GDP, and the appropriate concentration of agonist for 20 minutes at 30° C. To test inhibition, all samples were incubated with 100 nM U69,593 as well as the appropriate concentration of compound. Membranes with bound [35 S]GTPγS were collected on Whatman GF/B filter paper (Brandel, Gaithersburg, Md., USA) utilizing a Brandel harvester. Bound [35 S]GTPγS was quantified using a TriCarb-2900TR scintillation counter (Packard, Downers Grove, Ill., USA) following addition of 4 mL ReadySafe scintillation fluid (Beckman Coulter, Indianapolis, Ind., USA). […] NA indicates not applicable. For each compound, curve fitting was done in Microcal Origin 17.0 software using logistic sigmoidal fit, to determine EC50 and maximal percent stimulation, which in turn was normalized to the maximal percent stimulation of the test full agonist compound U69,593 to determine % efficacy. β2-Arrestin Experiments were conducted using the PathHunter Detection Kit obtained from DiscoverX. Cells stably expressing kappa, mu or delta opioid receptor constructs (PathHunter U2OS hOPRK1, CHO-K1 rOPRM1 and CHO-K1 OPRD1 β-arrestin cell line, DiscoverX, Fremont, Calif., USA) were plated in 96- or 384-well plates. Cells were stimulated with the compounds for 90 minutes at 37° C. To test inhibition, all samples were incubated with 100 nM U69,593 as well as the appropriate concentration of compound. Cells were then incubated for 60 minutes in the presence of galoctosidase substrate, yielding chemiluminescent product. Chemiluminescence was measured using a Synergy Neo microplate reader (BioTek, Winooski, Vt., USA). Antagonism assays were done in the same manner, in the presence of 300 nM U69,593, 1 μM DAMGO or 1 μM DPDPE for KOP-R, MOP-R or DOP-R assays, respectively. […] NA indicates not applicable. […]

[2] = target: T2, human kappa opioid receptors (Homo sapiens, UniProt P41145); assay: [35S]GTPγS stimulation, membranes from U2OS cells; format: biochemical; details: for Emax: read-out: GTPγS stimulation % efficacy
T2 construct: expressed in transfected cells; host or cells: U2OS
T2 sequence (P41145 whole entry): as above
Experimental: Membranes from cells stably expressing kappa, mu or delta opioid receptor constructs (PathHunter U2OS hOPRK1, CHO-K1 rOPRM1 and CHO-K1 OPRD1 β-arrestin cell line, DiscoverX, Fremont, Calif., USA) were used. Cells were scraped from tissue culture plates, homogenized with a tissue tearor homogenizer in membrane buffer (10 mM Tris, 100 mM NaCl, and 1 mM EDTA; pH 7.4), and centrifuged at 20,000 g for 30 minutes at 4° C. and frozen at −80° C. until use. Prior to use, the pellets were resuspended in binding buffer (50 mm Tris, 100 mm NaCl, pH 7.4), homogenized with a dounce homogenizer and […] incubated with 1.0 nM of the appropriate tritiated ligand ([^3H]U69,593, [^3H]DAMGO or [^3H]DPDPE for kappa, mu or delta binding, respectively) and the appropriate concentration of compound for 60 minutes at 30° C. Membranes with bound tritiated ligand were collected on Whatman GF/B filter paper (Brandel, Gaithersburg, Md., USA) utilizing a Brandel harvester. Bound tritiated ligand was quantified using a TriCarb-2900TR scintillation counter (Packard, Downers Grove, Ill., USA) following addition of 4 ml ReadySafe scintillation fluid (Beckman Coulter, Indianapolis, Ind., USA). Compiled data for each compound was normalized to the maximal binding in the absence of compound, with non-specific binding subtracted. Curve fitting was done in Microcal Origin 17.0 software using logistic sigmoidal fit, to determine IC50. GTPgammaS Membranes from U2OS cells stably expressing human kappa opioid receptors were used. Cells were scraped from tissue culture plates, homogenized with a tissue tearor homogenizer in membrane buffer (10 mM Tris, 100 mM NaCl, and 1 mM EDTA; pH 7.4), and centrifuged at 20,000 g for 30 minutes at 4° C. and frozen at −80° C. until use. Prior to use, the pellets were resuspended in assay buffer (50 mm Tris, 100 mm NaCl, 5 mM MgCl2, and 1 mM EDTA; pH 7.4) and homogenized with a dounce homogenizer and 50 μg incubated with 0.1 nM [35 S]GTPγS, 10 nM GDP, and the appropriate concentration of agonist for 20 minutes at 30° C. To test inhibition, all samples were incubated with 100 nM U69,593 as well as the appropriate concentration of compound. Membranes with bound [35 S]GTPγS were collected on Whatman GF/B filter paper (Brandel, Gaithersburg, Md., USA) utilizing a Brandel harvester. Bound [35 S]GTPγS was quantified using a TriCarb-2900TR scintillation counter (Packard, Downers Grove, Ill., USA) following addition of 4 mL ReadySafe scintillation fluid (Beckman Coulter, Indianapolis, Ind., USA). […] For each compound, curve fitting was done in Microcal Origin 17.0 software using logistic sigmoidal fit, to determine EC50 and maximal percent stimulation, which in turn was normalized to the maximal percent stimulation of the test full agonist compound U69,593 to determine % efficacy. β2-Arrestin Experiments were conducted using the PathHunter Detection Kit obtained from DiscoverX. Cells stably expressing kappa, mu or delta opioid receptor constructs (PathHunter U2OS hOPRK1, CHO-K1 rOPRM1 and CHO-K1 OPRD1 β-arrestin cell line, DiscoverX, Fremont, Calif., USA) were plated in 96- or 384-well plates. Cells were stimulated with the compounds for 90 minutes at 37° C. To test inhibition, all samples were incubated with 100 nM U69,593 as well as the appropriate concentration of compound. Cells were then incubated for 60 minutes in the presence of galoctosidase substrate, yielding chemiluminescent product. Chemiluminescence was measured using a Synergy Neo microplate reader (BioTek, Winooski, Vt., USA). Antagonism assays were done in the same manner, in the presence of 300 nM U69,593, 1 μM DAMGO or 1 μM DPDPE for KOP-R, MOP-R or DOP-R assays, respectively.

[3] = target: T3, kappa opioid receptor (PathHunter U2OS hOPRK1 β-arrestin cell line) (Homo sapiens, UniProt P41145); assay: β-arrestin coupling (PathHunter Detection Kit); format: cell-based; details: for β-arrestin coupling % efficacy: maximal, normalized to U69,593; for β-arrestin coupling % efficacy / β-arrestin coupling EC50: No stim = no stimulation at highest dose tested, 10,000 nM; for Emax at 10 µM: U2OS; for β-arrestin coupling EC50: 90 minutes at 37° C.
T3 construct: host or cells: U2OS (PathHunter U2OS hOPRK1 β-arrestin cell line)
T3 sequence (P41145 whole entry): as above
Experimental: as §1

[4] = 1.0 nM [3H]U69,593, 60 minutes at 30° C., read-out: Binding IC50
[5] = read-out: β-arrestin coupling % efficacy
[6] = read-out: β-arrestin coupling % efficacy at 10 μM

| Structure (SMILES) | IC50 [1, 4] [µM] | EC50 [2] [µM] | Emax [2] [%] | β-arrestin coupling % efficacy [3] | EC50 [3] [µM] | Emax at 10 µM [3, 5] [%] | β-arrestin coupling EC50 [3] | IC50 [1] [µM] | Emax at 10 µM [3, 6] [%] |
| --- | --- | --- | --- | --- | --- | --- | --- | --- | --- |
| O=C(Cc1cccc(Cl)c1)N1CCN[C@@H]2COC[C@H](N3CCCC3)[C@H]21 (racemic) [Example 5A24] | 0.251 | 0.213 | 64 | No stim |  |  |  |  |  |
| O=C(Cc1ccc(F)c(Cl)c1)N1CCN[C@@H]2COC[C@H](N3CCCC3)[C@H]21 (racemic) [Example 5A25] | 0.249 | 0.571 | 93 |  | 13.6 | 29 |  |  |  |
| O=C(Cc1cccc(C(F)(F)F)c1)N1CCN[C@@H]2COC[C@H](N3CCCC3)[C@H]21 (racemic) [Example 5A26] | 0.112 | 0.13 | 108 |  | 3.26 | 42 |  |  |  |
| O=C(Cc1cc(Cl)cc(Cl)c1)N1CCN[C@@H]2COC[C@H](N3CCCC3)[C@H]21 (racemic) [Example 5A32] | 0.41 | 0.464 | 66.5 | No stim |  |  | No stim |  |  |
| Cc1ccc(CC(=O)N2CCN[C@@H]3COC[C@H](N4CCCC4)[C@H]32)cc1C (racemic) [Example 5A40] | 0.719 | 1.7 | 111 | No stim |  |  | No stim |  |  |
| CS(=O)(=O)N1CCN(C(=O)Cc2ccc(Cl)c(Cl)c2)[C@H]2[C@H]1COC[C@@H]2N1CCCC1 (racemic) [Example 5A44] |  | 0.0067 | 88 |  | 6.2 | 55 |  | 0.019 |  |
| O=C(Cc1ccc(Cl)c(C(F)(F)F)c1)N1CCN[C@@H]2COC[C@H](N3CCCC3)[C@H]21 (racemic) [Example 5A46] |  | 0.0063 | 131 |  |  |  |  | 0.015 | 100 |
| Cc1ccc(CC(=O)N2CCN[C@@H]3COC[C@H](N4CCCC4)[C@H]32)cc1C(F)(F)F (racemic) [Example 5A47] |  | 0.009 | 84 |  | 4.9 | 78 |  | 0.031 |  |
| O=C(Cc1cccc(Cl)c1Cl)N1CCN[C@@H]2COC[C@H](N3CCCC3)[C@H]21 (racemic) [Example 5A48] | 1.04 | 21.8 | 181 | No stim |  |  |  |  |  |
| O=C(Cc1ccc(C(F)(F)F)cc1)N1CCN[C@@H]2COC[C@H](N3CCCC3)[C@H]21 (racemic) [Example 5A49] | 0.102 | 0.109 | 69 |  | 11 | 36 |  |  |  |
| CN(CC1CC1)[C@H]1COC[C@H]2NCCN(C(=O)Cc3ccc(Cl)c(Cl)c3)[C@@H]21 (racemic) [Example 5A50] |  | 0.093 | 79 | No stim |  |  |  | 0.297 |  |
| CN(C)[C@H]1COC[C@H]2NCCN(C(=O)Cc3ccc(Cl)c(Cl)c3)[C@@H]21 (racemic) [Example 5A51] | 0.12 | 0.108 | 71 | No stim |  |  |  |  |  |
| O=C(Cc1ccc(Cl)c(Cl)c1)N1CCN(S(=O)(=O)C2CC2)[C@@H]2COC[C@H](N3CCCC3)[C@H]21 (racemic) [Example 5A52] |  | 0.003 | 101 |  | 3.3 | 79 |  | 0.0051 |  |
| O=C(Cc1ccc(Cl)c(Cl)c1)N1CCN(Cc2ccccc2)[C@@H]2COC[C@H](N3CCCC3)[C@H]21 (racemic) [Example 5A53, 1-[4-benzyl-8-pyrrolidin-1-yl-3,4a,5,7,8,8a-hexahydro-2H-pyrano(3,4-b)pyrazin-1-yl]-2-(3,4-dichlorophenyl)ethanone] |  | 0.012 | 82 |  |  |  |  | 0.04 | 80 |
| O=C(Cc1ccc(Cl)c(Cl)c1)N1CCN(CC2CCCC2)[C@@H]2COC[C@H](N3CCCC3)[C@H]21 (racemic) [Example 5A54] |  | 0.031 | 73 |  |  |  |  | 0.073 | 20 |
